Test results reported in ChEMBL document CHEMBL1155232, “Aminoimidazoles as potent and selective human beta-secretase (BACE1) inhibitors” (J Med Chem, 2009).
The source made the active and inactive calls. The calls are words filed in the database; no cut-off is given here.

Experiments:
[1] = biological target: T1, Cathepsin D (Homo sapiens, UniProt P07339); test: Inhibition of human cathepsin D at 200 uM by FRET
[2] = biological target: T1, Cathepsin D; test: Inhibition of human cathepsin D by FRET
[3] = biological target: T2, Beta-secretase 1 (Homo sapiens, UniProt P56817); test: Inhibition of human BACE1 by FRET
[4] = biological target: T1, Cathepsin D; test: Inhibition of human cathepsin D at 100 uM by FRET
[5] = biological target: T2, Beta-secretase 1; test: Inhibition of BACE1 expressed in CHO cells co-expressing human wild type APP protein by ELISA; assay type: cell-based
[6] = biological target: T3, Beta-secretase 2 (Homo sapiens, UniProt Q9Y5Z0)
T3 sequence (Q9Y5Z0 whole entry): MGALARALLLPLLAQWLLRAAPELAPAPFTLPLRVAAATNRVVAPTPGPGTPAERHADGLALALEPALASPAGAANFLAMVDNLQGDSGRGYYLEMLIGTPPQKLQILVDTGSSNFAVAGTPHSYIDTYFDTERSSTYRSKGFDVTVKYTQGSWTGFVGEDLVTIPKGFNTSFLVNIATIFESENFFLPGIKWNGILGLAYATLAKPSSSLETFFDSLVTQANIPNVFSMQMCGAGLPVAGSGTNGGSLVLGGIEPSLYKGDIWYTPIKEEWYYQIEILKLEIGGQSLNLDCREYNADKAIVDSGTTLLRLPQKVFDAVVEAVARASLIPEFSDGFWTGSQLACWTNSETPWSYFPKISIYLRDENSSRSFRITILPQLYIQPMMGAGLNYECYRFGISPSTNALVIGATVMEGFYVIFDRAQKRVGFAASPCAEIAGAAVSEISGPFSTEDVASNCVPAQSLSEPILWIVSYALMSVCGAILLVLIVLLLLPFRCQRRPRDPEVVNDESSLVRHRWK

[7] = Inhibition of pepsin at 100 uM by FRET
[8] = biological target: T4, Renin (Homo sapiens, UniProt P00797); test: Inhibition of human recombinant renin by FRET
T4 sequence (P00797 whole entry): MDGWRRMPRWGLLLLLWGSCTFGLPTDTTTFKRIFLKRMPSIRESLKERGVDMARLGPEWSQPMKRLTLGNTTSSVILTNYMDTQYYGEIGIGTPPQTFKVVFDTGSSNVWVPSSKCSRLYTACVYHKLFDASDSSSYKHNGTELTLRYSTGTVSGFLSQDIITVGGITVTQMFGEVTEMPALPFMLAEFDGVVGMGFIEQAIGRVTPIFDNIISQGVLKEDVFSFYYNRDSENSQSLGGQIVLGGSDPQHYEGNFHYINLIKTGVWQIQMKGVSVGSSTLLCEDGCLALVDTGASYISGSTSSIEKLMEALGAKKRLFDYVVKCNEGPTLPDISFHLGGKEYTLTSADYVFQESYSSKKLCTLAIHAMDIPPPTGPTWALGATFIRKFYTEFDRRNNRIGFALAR

[9] = biological target: T5, Renin (Homo sapiens) (UniProt P00797); test: Inhibition of human recombinant renin at 50 uM by FRET
T5 sequence (whole entry): T4 sequence (P00797 whole entry)

[10] = tested on: Mus musculus; test: Reduction in Abeta-40 level in Tg2576 mouse plasma at 30 mg/kg, po administered as single dose after 6 hrs; assay type: functional; set-up: scale not given: the % may be the effect or the level left
[11] = tested on: Mus musculus; test: Reduction in Abeta-40 level in Tg2576 mouse brain at 30 mg/kg, po administered as single dose after 6 hrs; assay type: functional, organism-based; set-up: dose 30 mg/kg
[12] = biological target: T6, Beta-secretase 2 (Homo sapiens) (UniProt Q9Y5Z0); test: Inhibition of human BACE2 at 100 uM by FRET
T6 sequence (whole entry): T3 sequence (Q9Y5Z0 whole entry)

[13] = biological target: T6, Beta-secretase 2 (Homo sapiens); test: Inhibition of human BACE2 at […] by FRET

T1 sequence (P07339 65-162 limits assumed): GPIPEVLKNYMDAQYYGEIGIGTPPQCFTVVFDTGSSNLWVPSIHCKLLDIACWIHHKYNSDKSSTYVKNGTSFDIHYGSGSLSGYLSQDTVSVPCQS
T1 sequence (P07339 169-412 limits assumed): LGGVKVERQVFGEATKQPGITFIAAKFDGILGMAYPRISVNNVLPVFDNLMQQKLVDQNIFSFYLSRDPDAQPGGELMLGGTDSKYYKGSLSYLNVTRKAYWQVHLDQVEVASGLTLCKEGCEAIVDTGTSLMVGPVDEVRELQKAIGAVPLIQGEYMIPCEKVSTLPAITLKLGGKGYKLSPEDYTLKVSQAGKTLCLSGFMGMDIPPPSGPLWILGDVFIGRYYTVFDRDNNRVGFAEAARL
T2 sequence (P56817 whole entry): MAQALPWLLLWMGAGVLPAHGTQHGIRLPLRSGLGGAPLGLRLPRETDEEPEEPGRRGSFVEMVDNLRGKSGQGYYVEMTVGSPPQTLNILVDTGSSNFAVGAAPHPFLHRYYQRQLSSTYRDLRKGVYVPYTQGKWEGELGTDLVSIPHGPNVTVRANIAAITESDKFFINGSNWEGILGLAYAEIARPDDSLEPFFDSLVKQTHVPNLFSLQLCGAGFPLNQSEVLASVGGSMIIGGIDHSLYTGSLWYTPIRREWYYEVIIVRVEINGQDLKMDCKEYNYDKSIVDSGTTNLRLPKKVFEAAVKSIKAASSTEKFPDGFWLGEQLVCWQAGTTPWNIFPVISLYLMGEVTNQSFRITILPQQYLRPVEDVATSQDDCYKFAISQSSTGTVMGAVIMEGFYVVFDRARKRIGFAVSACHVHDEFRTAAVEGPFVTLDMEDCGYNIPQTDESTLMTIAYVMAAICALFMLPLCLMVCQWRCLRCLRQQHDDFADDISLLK

| SMILES | IC50 [2] [µM] | EC50 [5] [µM] | IC50 [6] [µM] | further results |
| --- | --- | --- | --- | --- |
| NC1=NC(c2ccccc2)(c2ccccc2)C2=NCCCN12 | – | – | – | inhibition [1]: 16% |
| NC1=NC(c2cccc(-c3cccnc3F)c2)(c2ccc3c(c2)OC(F)(F)O3)C2=NCCCN12 (stereo unspecified) | 95.3 | – | – | – |
| COc1cccc(C2(c3ccccc3)N=C(N)N3CCCN=C32)c1 (stereo unspecified) | – | 20.9 | 24.4 | IC50 [3]: 20.3 µM; inhibition [4]: 22% |
| NC1=NC(c2ccccc2)(c2cccc(C(F)(F)F)c2)C2=NCCCN12 (stereo unspecified) | – | 5.1 | 30.1 | IC50 [3]: 21.9 µM; inhibition [4]: 28% |
| NC1=NC(c2ccc(OC(F)(F)F)cc2)(c2cccc(-c3cccnc3F)c2)C2=NCCCCN12 (stereo unspecified) | 10.8 | 0.3 | – | IC50 [3]: 0.08 µM |
| CCCc1cccc(C2(c3ccc(OC(F)(F)F)cc3)N=C(N)N3CCCN=C32)c1 (stereo unspecified) | 93.7 | 2.1 | – | – |
| NC1=NC(c2ccc(OC(F)(F)F)cc2)(c2cccc(-c3cccnc3F)c2)C2=NOCCN12 (stereo unspecified) | 2.4 | 0.2 | – | inhibition [7]: 12%; IC50 [8]: 2.04 µM |
| NC1=N[C@](c2ccc(OC(F)(F)F)cc2)(c2cccc(-c3cncnc3)c2)C2=NCCCN12 | 36.2 | – | 10.7 | inhibition [7]: 12%; inhibition [9]: 36% |
| NC1=NC(c2ccc(OC(F)(F)F)cc2)(c2cccc(-c3cccnc3F)c2)C2=NCCN12 (stereo unspecified) | 10.7 | – | – | – |
| NC1=N[C@@](c2ccc(OC(F)(F)F)cc2)(c2cccc(-c3cncnc3)c2)C2=NCCCN12 | – | – | – | inhibition [4]: 29% |
| NC1=NC(c2ccccc2)(c2cccc(Cc3ccccc3)c2)C2=NCCCN12 (stereo unspecified) | 52.5 | 5.1 | 10.9 | – |
| NC1=NC(c2ccc(OC(F)(F)F)cc2)(c2cccc(CCC3CC3)c2)C2=NCCCN12 (stereo unspecified) | 16.4 | 0.95 | 3.78 | – |
| COc1ccc(Cc2cccc(C3(c4ccccc4)N=C(N)N4CCCN=C43)c2)cc1 (stereo unspecified) | 24.9 | 5.1 | 22.4 | – |
| COc1ccc(C2(c3cccc(-c4cncnc4)c3)N=C(N)N3CCCN=C32)cc1 (stereo unspecified) | 69.5 | – | 16.2 | – |
| CCOc1ccc(C2(c3cccc(-c4cccnc4F)c3)N=C(N)N3CCCN=C32)cc1OCC (stereo unspecified) | 63.4 | – | – | inhibition [7]: 11%; IC50 [3]: 0.08 µM; inhibition [9]: 14% |
| COc1ccc(C2(c3cccc(-c4cccnc4F)c3)N=C(N)N3CCCN=C32)cc1 (stereo unspecified) | 16.5 | 1.63 | – | IC50 [3]: 0.07 µM |
| CC1(C)CN2C(N)=NC(c3ccc(OC(F)(F)F)cc3)(c3cccc(-c4cccnc4F)c3)C2=N1 (stereo unspecified) | 33 | 1.5 | 17.3 | IC50 [3]: 0.19 µM |
| NC1=N[C@](c2ccc(OC(F)(F)F)cc2)(c2cccc(-c3cccnc3F)c2)C2=NCCCN12 | 6.9 | – | 3.6 | inhibition [7]: 13%; Activity [10]: 71%; Activity [11]: inactive; IC50 [8]: 20.8 µM |
| NC1=NC(c2ccccc2)(c2cccc(Cc3ccc(F)cc3)c2)C2=NCCCN12 (stereo unspecified) | 9.2 | 4.6 | 7 | inhibition [7]: 6%; inhibition [9]: 15% |
| NC1=NC(c2ccc(OC(F)(F)F)cc2)(c2cccc(-c3cccnc3F)c2)/C2=N/CCCCCN12 (stereo unspecified) | 11.3 | – | 10.8 | – |
| CC(C)(C)c1cccc(C2(c3ccccc3)N=C(N)N3CCCN=C32)c1 (stereo unspecified) | 150 | 3 | – | inhibition [12]: 21%; IC50 [3]: 30.2 µM |
| NC1=NC(c2ccc(OC(F)(F)F)cc2)(c2cccc(Br)c2)C2=NCCCN12 (stereo unspecified) | 47.4 | 1.6 | – | IC50 [3]: 2.6 µM; inhibition [13]: 39% |
| NC1=NC(c2ccc(OC(F)(F)F)cc2)(c2cccc(-c3cncnc3)c2)C2=NCCCN12 (stereo unspecified) | 78.7 | – | 16.7 | – |
| NC1=NC(c2cccc(-c3cccnc3F)c2)(c2ccc3c(c2)OCCO3)C2=NCCCN12 (stereo unspecified) | 9.6 | – | – | – |
| NC1=N[C@@](c2ccc(OC(F)(F)F)cc2)(c2cccc(-c3cccnc3F)c2)C2=NCCCN12 | 56.9 | – | – | – |
| NC1=NC(c2cccc(-c3cccnc3F)c2)(c2ccc3c(c2)OCO3)C2=NCCCN12 (stereo unspecified) | 15.4 | – | – | inhibition [7]: 18%; inhibition [9]: 24% |
| NC1=NC(c2ccc(OC(F)(F)F)cc2)(c2cccc(-c3cccnc3F)c2)C2=NCCCN12 (racemic) | 18.1 | – | – | – |
